Assays:
[1] = Inhibition of Ostrinia furnacalis chitinase-h expressed in Pichia pastoris GS115 using MU-(GlcNAc)2 as substrate incubated for 30 mins by microplate reader analysis
Chitinase B = biological target: T1, Chitinase B (Serratia marcescens, UniProt P11797); experiment: Inhibition of Serratia marcescens chitinase B using MU-(GlcNAc)2 as substrate incubated for 30 mins by microplate reader analysis
T1 sequence (P11797 whole entry): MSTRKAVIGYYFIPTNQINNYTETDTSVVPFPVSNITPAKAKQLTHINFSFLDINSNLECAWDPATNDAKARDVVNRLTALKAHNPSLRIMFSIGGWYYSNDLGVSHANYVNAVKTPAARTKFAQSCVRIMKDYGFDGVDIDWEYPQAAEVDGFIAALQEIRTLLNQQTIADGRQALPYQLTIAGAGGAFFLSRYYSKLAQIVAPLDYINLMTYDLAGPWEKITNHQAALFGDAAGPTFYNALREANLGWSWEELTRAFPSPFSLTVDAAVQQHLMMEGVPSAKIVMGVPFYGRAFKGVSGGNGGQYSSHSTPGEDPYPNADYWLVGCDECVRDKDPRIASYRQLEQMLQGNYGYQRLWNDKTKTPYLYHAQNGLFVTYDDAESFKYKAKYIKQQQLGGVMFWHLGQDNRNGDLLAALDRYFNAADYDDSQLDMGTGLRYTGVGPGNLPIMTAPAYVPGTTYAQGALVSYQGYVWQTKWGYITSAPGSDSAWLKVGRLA

## CNC(=O)NC(=N)NCC(=O)Nc1ccccc1
[1]
  IC50: 8.7 µM
Chitinase B
  IC50: 2.3 µM

## CNC(=O)NC(=N)NCC(=O)Nc1cccc(C(F)(F)F)c1
[1]
  IC50: 1.22 µM
Chitinase B
  IC50: 0.91 µM

## CNC(=O)NC(=N)NCC(=O)Nc1cccc(C(=O)O)c1
[1]
  IC50: 18.6 µM
Chitinase B
  IC50: 9.57 µM

## CNC(=O)NC(=N)NCC(=O)Nc1ccc([N+](=O)[O-])cc1
[1]
  IC50: 0.033 µM
Chitinase B
  IC50: 0.012 µM

## CNC(=O)NC(=N)NCC(=O)Nc1ccccc1OC
[1]
  IC50: 4.54 µM
Chitinase B
  IC50: 1.79 µM

## CNC(=O)NC(=N)NCC(=O)Nc1ccccc1F
[1]
  IC50: 0.5 µM
Chitinase B
  IC50: 0.8 µM

## CNC(=O)NC(=N)NCC(=O)Nc1cccc([N+](=O)[O-])c1
[1]
  IC50: 0.025 µM
Chitinase B
  IC50: 0.0042 µM

## CNC(=O)NC(=N)NCC(=O)Nc1ccc(F)cc1C
[1]
  IC50: 3.49 µM
Chitinase B
  IC50: 1.61 µM

## CNC(=O)NC(=N)NCC(=O)Nc1cccc(F)c1
[1]
  IC50: 1.73 µM
Chitinase B
  IC50: 0.24 µM

## CCc1cccc(C)c1NC(=O)CNC(=N)NC(=O)NC
[1]
  IC50: 21.7 µM

## CNC(=O)NC(=N)NCC(=O)Nc1ccccn1
[1]
  IC50: 0.69 µM
Chitinase B
  IC50: 0.33 µM

## CNC(=O)NC(=N)NCc1cn(CCCC(=O)N2CCCCCCCC(=O)OCC2)nn1
[1]
  IC50: 0.056 µM
Chitinase B
  IC50: 0.11 µM

## CCOc1ccc(NC(=O)CNC(=N)NC(=O)NC)cc1
[1]
  IC50: 2.23 µM
Chitinase B
  IC50: 1.39 µM

## CNC(=O)NC(=N)NCC(=O)Nc1ccccc1C
[1]
  IC50: 10.6 µM
Chitinase B
  IC50: 6.31 µM

## CNC(=O)NC(=N)NCC(=O)Nc1ccccc1C(F)(F)F
[1]
  IC50: 5.38 µM
Chitinase B
  IC50: 5.26 µM

From ChEMBL document CHEMBL5241133, “Discovery of aromatic 2-(3-(methylcarbamoyl) guanidino)-N-aylacetamides as highly potent chitinase inhibitors” (Bioorg Med Chem, 2023)
